Here are results for 21 compounds from US9732075B2, “Benzimidazole-proline derivatives” (IDORSIA PHARMACEUTICALS LTD, priority 2012, dated 2017).

Assay [1] addresses human orexin-2 receptor (Homo sapiens (Human), UniProt O43614). The assay is described as follows: In vitro assay: intracellular calcium measurements (FLIPR), antagonistic activity. The format is cell-based. Particulars: CHO cells expressing human orexin-2 receptor, orexin-A agonist, geometric mean, read-out: IC50 Ox2. Summed up:
(§1)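 Dye-loaded CHO cells expressing either human orexin receptor are exposed to test antagonist for 120 min, then stimulated with orexin-A at 3 nM.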
(In general: Calcium assays in cells follow changes in intracellular calcium, usually with a dye or a luminescent sensor.)

Assay [2] addresses human orexin-1 receptor (Homo sapiens (Human), UniProt O43613). The description is as above. The format is cell-based. Particulars: CHO cells expressing human orexin-1 receptor, orexin-A agonist, geometric mean, read-out: IC50 Ox1. Summed up: as §1

Chain of human orexin-2 receptor (O43614 whole entry): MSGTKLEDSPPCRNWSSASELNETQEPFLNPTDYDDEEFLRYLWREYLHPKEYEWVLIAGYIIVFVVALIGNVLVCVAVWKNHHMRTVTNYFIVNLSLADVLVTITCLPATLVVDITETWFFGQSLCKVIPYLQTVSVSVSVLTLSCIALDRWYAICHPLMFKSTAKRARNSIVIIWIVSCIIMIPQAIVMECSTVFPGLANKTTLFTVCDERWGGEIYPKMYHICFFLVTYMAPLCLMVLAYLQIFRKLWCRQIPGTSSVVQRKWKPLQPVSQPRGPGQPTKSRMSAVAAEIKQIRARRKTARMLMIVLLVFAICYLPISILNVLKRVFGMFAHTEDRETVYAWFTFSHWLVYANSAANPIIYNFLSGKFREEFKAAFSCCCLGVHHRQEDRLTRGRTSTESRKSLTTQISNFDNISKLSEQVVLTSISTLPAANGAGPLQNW
Chain of human orexin-1 receptor (O43613 whole entry): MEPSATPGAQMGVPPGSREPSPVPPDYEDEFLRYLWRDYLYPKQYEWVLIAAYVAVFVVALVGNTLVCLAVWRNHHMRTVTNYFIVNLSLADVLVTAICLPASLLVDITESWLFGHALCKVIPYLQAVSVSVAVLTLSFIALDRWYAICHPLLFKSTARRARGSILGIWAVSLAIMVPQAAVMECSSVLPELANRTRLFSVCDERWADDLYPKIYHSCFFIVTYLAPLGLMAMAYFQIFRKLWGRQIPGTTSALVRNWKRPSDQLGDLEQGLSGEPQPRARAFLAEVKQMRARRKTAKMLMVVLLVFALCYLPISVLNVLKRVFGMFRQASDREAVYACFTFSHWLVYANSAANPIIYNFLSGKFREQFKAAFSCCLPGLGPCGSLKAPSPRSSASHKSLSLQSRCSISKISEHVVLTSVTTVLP

In general, IC50 refers to the concentration needed to halve the response being measured. `Cc1nc(C(=O)N2CCCC2c2nc3c(Cl)cc(C(F)(F)F)cc3[nH]2)c(-c2cccc(Cl)c2)s1` (stereo not drawn) [Ex. 1.100]: the 50% inhibitory concentration (IC50) in assay [1] came out at 104 nM; in assay [2] it was 27 nM.
The matching figures for `Cc1c(Cl)ccc2nc([C@]3(C)CCCN3C(=O)c3c(F)cccc3-c3ccccc3)[nH]c12` [Ex. 5.225]: 44 nM and 16 nM.
`COc1ccc2nc([C@@H]3CCCN3C(=O)c3nc(C)sc3-c3ccc(Br)cc3)[nH]c2c1` [Ex. 1.18]: the half-inhibitory concentration (IC50) came to 153 nM in assay [1] and 935 nM in assay [2].
Regarding `Cc1cc2[nH]c([C@@H]3[C@@H](C)CCN3C(=O)c3c(F)cccc3-c3ncccn3)nc2cc1Cl` [Ex. 4.133], the results for the IC50 in assay [1] and in assay [2] were 359 nM and 25 nM, respectively.
The matching figures for `C=C1C[C@@H](c2nc3cc(C(C)(C)C)ccc3[nH]2)N(C(=O)c2ccc(C)cc2-n2nccn2)C1` [Ex. 6.166]: 4 nM and 33 nM.
For `COc1ccc2nc([C@@H]3CCCN3C(=O)c3c(C)cccc3-n3nccn3)[nH]c2c1` [Ex. 1.161], in that order: 22 nM and 1450 nM.
The matching figures for `C=C1C[C@@H](c2nc3cc(C(C)(C)C)ccc3[nH]2)N(C(=O)c2nc(C)ccc2-n2nccn2)C1` [Ex. 6.174]: 15 nM and 233 nM.
Consider `C=C1C[C@@H](c2nc3cc(Cl)c(C(F)(F)F)cc3[nH]2)N(C(=O)c2cc(C)c(C)cc2-n2nccn2)C1` [Ex. 6.181], for which the IC50 in assay [1] and in assay [2] was 2 nM each time.
For `COc1ccc(-n2nccn2)c(C(=O)N2C[C@H](OC)C[C@H]2c2nc3ccc(OC)cc3[nH]2)c1` [Ex. 3.20], the values for the IC50 in assay [1] and in assay [2] were 40 nM and 1860 nM, respectively.
For the compound `C[C@@]1(c2nc3cc(C(F)(F)F)c(Cl)cc3[nH]2)CCCN1C(=O)c1ccccc1-n1cccn1` [Ex. 5.141], the IC50 in assay [1] was found to be 244 nM; in assay [2], 27 nM.
As to `C=C1C[C@@H](c2nc3cc(OC)ccc3[nH]2)N(C(=O)c2nc(C3CC3)sc2-c2cccc(Br)c2)C1` [Ex. 6.28], the half-maximal inhibitory concentration (IC50) in assay [1] was 15 nM; in assay [2] it was 20 nM.
Take `Cc1ccc(-n2nccn2)c(C(=O)N2CCC[C@@]2(C)c2nc3cc(Cl)ccc3[nH]2)c1` [Ex. 5.11]: the IC50 in assay [1] came out at 413 nM; in assay [2], 29 nM.
The matching figures for `Cc1nc(C(=O)N2CCC[C@@]2(C)c2nc3cc(OC(F)(F)F)ccc3[nH]2)c(-c2cccc(Cl)c2Cl)s1` [Ex. 5.244]: 641 nM and 62 nM.
For `Cc1ccc(-c2nc(C)sc2C(=O)N2CC[C@H](C)[C@H]2c2nc3cc(C)c(C)cc3[nH]2)cc1` [Ex. 4.88], in that order: 182 nM and 11 nM.
For `CSc1cccc2nc([C@@H]3CCCN3C(=O)c3ccc(C)cc3-n3nccn3)[nH]c12` [Ex. 1.169], in that order: 3 nM and 37 nM.
Turning to `COc1ccc(-n2nccn2)c(C(=O)N2CCC[C@@]2(C)c2nc3cc(OC(F)(F)F)ccc3[nH]2)c1` [Ex. 5.237], the IC50 is 223 nM in assay [1] and 58 nM in assay [2].
For `Cc1c(Cl)ccc2nc([C@]3(C)CCCN3C(=O)c3cc(F)ccc3-c3cccnc3)[nH]c12` [Ex. 5.220], in that order: 249 nM and 98 nM.
The matching figures for `C=C1C[C@@H](c2nc3cc(Cl)c(C)cc3[nH]2)N(C(=O)c2cc(C)ccc2-n2nccn2)C1` [Ex. 6.65]: 3 nM and 34 nM.
For `C=C1C[C@@H](c2nc3cc(OC)ccc3[nH]2)N(C(=O)c2nc(C)sc2-c2cccc(Cl)c2)C1` [Ex. 6.8], in that order: 7 nM and 21 nM.
With `Cc1c(Cl)ccc2[nH]c([C@]3(C)CCCN3C(=O)c3nc(-c4ccc(F)cc4)sc3-c3ccc(F)cc3)nc12` [Ex. 5.227], the half-inhibitory concentration (IC50) came out at 521 nM in assay [1] and 20 nM in assay [2].
For `Cc1ccc(-n2nccn2)c(C(=O)N2CCC[C@@]2(C)c2nc3c(Cl)cc(C(F)(F)F)cc3[nH]2)c1` [Ex. 5.14], in that order: 31 nM and 6 nM.
